Legend:
[1] = molecular target: T1, Amine oxidase [flavin-containing] B (Homo sapiens, UniProt P27338); assay: Inhibition of human recombinant MAOB expressed in Pichia pastoris by kinetic assay
T1 sequence (P27338 whole entry): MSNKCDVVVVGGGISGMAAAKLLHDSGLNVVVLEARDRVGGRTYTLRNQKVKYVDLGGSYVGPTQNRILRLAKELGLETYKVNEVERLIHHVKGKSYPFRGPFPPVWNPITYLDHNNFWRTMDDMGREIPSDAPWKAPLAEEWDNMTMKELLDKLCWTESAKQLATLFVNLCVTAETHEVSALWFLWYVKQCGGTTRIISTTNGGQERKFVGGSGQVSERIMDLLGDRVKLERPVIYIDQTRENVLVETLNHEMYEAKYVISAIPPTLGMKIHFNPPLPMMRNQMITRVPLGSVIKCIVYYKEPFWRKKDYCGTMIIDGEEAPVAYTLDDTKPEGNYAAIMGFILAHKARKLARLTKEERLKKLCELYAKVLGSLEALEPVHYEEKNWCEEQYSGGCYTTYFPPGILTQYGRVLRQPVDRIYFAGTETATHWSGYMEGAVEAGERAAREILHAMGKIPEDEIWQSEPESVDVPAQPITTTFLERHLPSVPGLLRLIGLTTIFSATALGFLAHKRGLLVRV

[2] = molecular target: T2, Amine oxidase [flavin-containing] B (Rattus norvegicus, UniProt P19643); assay: Inhibition of rat membrane MAOB
T2 sequence (P19643 whole entry): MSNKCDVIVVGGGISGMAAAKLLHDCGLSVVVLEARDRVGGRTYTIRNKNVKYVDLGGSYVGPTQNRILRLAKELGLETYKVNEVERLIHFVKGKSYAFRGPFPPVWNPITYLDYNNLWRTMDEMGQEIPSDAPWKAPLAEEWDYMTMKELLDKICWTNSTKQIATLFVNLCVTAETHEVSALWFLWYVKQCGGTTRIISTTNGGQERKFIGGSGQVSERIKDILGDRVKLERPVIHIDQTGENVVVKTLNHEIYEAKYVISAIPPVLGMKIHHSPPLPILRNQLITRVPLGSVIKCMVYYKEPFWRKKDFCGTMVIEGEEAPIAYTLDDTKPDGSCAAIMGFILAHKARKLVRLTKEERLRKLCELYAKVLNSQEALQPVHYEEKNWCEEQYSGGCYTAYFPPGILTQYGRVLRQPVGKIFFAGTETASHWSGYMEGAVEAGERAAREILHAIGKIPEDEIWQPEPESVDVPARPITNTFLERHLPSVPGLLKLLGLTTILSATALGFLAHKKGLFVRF

[3] = molecular target: T1, Amine oxidase [flavin-containing] B; assay: Inhibition of human recombinant MAOB expressed in Pichia pastoris at stoichiometric level of 1 mol/mol of E-FAD
[4] = molecular target: T1, Amine oxidase [flavin-containing] B; assay: Inhibition of human recombinant MAOB expressed in Pichia pastoris assessed as fluoride ion release by ion-selective electrode experiment
[5] = molecular target: T1, Amine oxidase [flavin-containing] B; assay: Inhibition of human recombinant MAOB expressed in Pichia pastoris assessed as effect on flavin absorbance shift by spectroscopy
[6] = molecular target: T1, Amine oxidase [flavin-containing] B; assay: Inhibition of human recombinant MAOB expressed in Pichia pastoris assessed as formation of intense negative dichroic band at […] by CD spectroscopy
[7] = molecular target: T1, Amine oxidase [flavin-containing] B; assay: Inhibition of reduced human recombinant MAOB expressed in Pichia pastoris assessed as increase in absorbance of reduced enzyme; set-up: scale not given: the % may be the effect or the level left
[8] = molecular target: T1, Amine oxidase [flavin-containing] B; assay: Inhibition of oxidized human recombinant MAOB expressed in Pichia pastoris under anaerobic assay condition
[9] = molecular target: T3, Amine oxidase [flavin-containing] A (Homo sapiens, UniProt P21397); assay: Inhibition of human recombinant MAOA expressed in Pichia pastoris by kinetic assay
T3 sequence (P21397 whole entry): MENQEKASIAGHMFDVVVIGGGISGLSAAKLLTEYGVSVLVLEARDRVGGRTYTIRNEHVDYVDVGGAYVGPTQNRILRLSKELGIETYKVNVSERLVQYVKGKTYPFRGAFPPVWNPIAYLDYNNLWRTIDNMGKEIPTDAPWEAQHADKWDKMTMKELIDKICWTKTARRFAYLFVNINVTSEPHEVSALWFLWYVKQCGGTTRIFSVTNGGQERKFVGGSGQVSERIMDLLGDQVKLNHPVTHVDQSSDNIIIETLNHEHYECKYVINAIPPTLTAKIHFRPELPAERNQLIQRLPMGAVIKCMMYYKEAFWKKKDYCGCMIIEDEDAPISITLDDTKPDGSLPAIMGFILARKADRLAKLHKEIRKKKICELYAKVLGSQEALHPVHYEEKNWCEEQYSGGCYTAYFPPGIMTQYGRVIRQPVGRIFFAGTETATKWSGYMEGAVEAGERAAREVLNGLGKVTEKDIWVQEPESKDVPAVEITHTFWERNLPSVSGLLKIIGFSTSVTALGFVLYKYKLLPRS

[10] = molecular target: T3, Amine oxidase [flavin-containing] A; assay: Inhibition of oxidized human recombinant MAOA expressed in Pichia pastoris under anaerobic assay condition
[11] = molecular target: T3, Amine oxidase [flavin-containing] A; assay: Inhibition of human MAOA

| Ki [1] | IC50 [2] | Activity [3] | Activity [4] | Activity [5] | Activity [6] | Activity [7] | Activity [8] | Ki [9] | Activity [10] | Ki [11] | Compound |
| --- | --- | --- | --- | --- | --- | --- | --- | --- | --- | --- | --- |
| 28 nM | 3.6 nM | Active | Active | Active | Active | 50% | Active | 1100 nM | Not Active |  | NC/C(=C/F)CCc1ccc(F)cc1 [MOFEGILINE] |
|  |  |  |  |  |  |  |  |  |  | 31000 nM | NCCCCc1ccccc1 [4-PHENYL-BUTYLAMINE] |

Reference: ChEMBL document CHEMBL1151754, “Structural and mechanistic studies of mofegiline inhibition of recombinant human monoamine oxidase B” (J Med Chem, 2008)
